These results are taken from US20170223976A1, “MODIFIED MILK POWDER CONTAINING 1,5-ANHYDRO-D-GLUCITOL” (NIHON STARCH CO., LTD., priority 2015, published 2017).

Structures are written as SMILES.

For one experiment, the system named is mesenchymal stem cells. Put plainly: GeneChip analysis using mesenchymal stem cells. The conditions noted are these: 1,5-AG reduced from 40 μg/mL to 1 μg/mL or less, 10th day. It counts as cell-based, human. As for the experimental part: GeneChip analysis using mesenchymal stem cells was carried out to clarify the function of 1,5-AG in a human. After 1,5-AG was added to a medium to ensure that the final concentration of 1,5-AG became not more than 1 μg/mL or 40 μg/mL and the mesenchymal stem cells were cultured for 10 days, total RNA was collected to carry out GeneChip analysis so as to analyze genes which were expressed and fluctuated according to the difference in the amount of 1,5-AG cyclopaedically. A similar test was carried out 3 times to obtain results which were then summarized and analyzed. The test was carried out by the following method.
Crystalline 1,5-AG was dissolved in pure water to a concentration of 40 mg/mL and filtered with a centrifugal ultrafiltration membrane having a molecular weight cut-off of 3,000 to remove trace macromolecules.
Mesenchymal cells derived from bone marrow (Riken Cell Bank, Resource No. MSC-R46)
DMEM prepared by adding 10% fetal bovine serum (FBS) and a 3 ng/mL fibroblast growth factor (FGF-2) (to be referred to as “growth medium” hereinafter) was used for the preculture of the mesenchymal stem cells. 10% FBS-added DMEM (to be referred to as “test medium” hereinafter) was used in this test. FGF-2 has the function of keeping the undifferentiated state of the mesenchymal stem cells, and the undifferentiated state of the cells was maintained by using the FGF-2-added medium during preculture. In this test, to analyze the differentiation-inducing effect of the sample, a medium containing no FGF-2 was used.
The human mesenchymal cells were initiated in a T-75 flask by using the growth medium and cultured in a CO2 incubator (5% CO2, 37° C., moistening). Medium exchange was carried out every 2 days, and the cells were separated by using 0.25% Trypsin/EDTA when 80% confluence was reached and collected to be used in this test.
The sample was added to a test medium to ensure that the final concentration of 1,5-AG became 40 μg/mL. […]

Another experiment has as its system PC12 cells. Put plainly: Determination of neurite outgrowth rate in PC12 cells (image count). The note with it: for cells showing a neurite outgrowth rate of 1 time or more / cells showing a neurite outgrowth rate of 2 times or more: 96 hours. It counts as cell-based. The procedure:
PSG-1 belongs to an immunoglobulin super family which includes some having the function of promoting neurogenesis. Then, the influence of 1,5-AG upon neuritogenesis was investigated. This was evaluated in a test system using PC12 cells which are generally used for the evaluation of neuritogenesis.
PC12 cells (Lot No. 48, Lot No. 51) (RIKEN cell bank, material 1)
DMEM medium prepared by adding 0.1% of FBS, 0.1% of HS, 1 ng/mL NGF and 1% of penicillin-streptomycin
PC12 cells were initiated in a T-75 flask by using a growth medium to be cultured in a CO2 incubator (5% CO2, 37° C., moistening). Medium exchange was carried out every 2 days, the cells were collected when 80% confluence was reached, and cells having a passage number of 2 were used in this test. Stated more specifically, after the cells were washed with D-PBS (−), the cells were separated by using 0.05% trypsin, and a growth medium was added to neutralize trypsin. Then, the supernatant was removed by centrifugation (180 g, 5 minutes), a growth medium was added to stir the cells, the number of the cells was counted by using a corpuscle calculating board, and a growth medium was used to achieve a target concentration (2.0×10^3 cells/100 μL).
A test was carried out at five concentrations (1.6, 8, 40, 200 and 1,000 μg/mL) of 1,5-AG. Stated more specifically, a 1,5-AG aqueous solution having a concentration of 100 mg/mL was diluted with water to prepare 100 times-concentrated solutions having concentrations of 0.16, 0.8, 4, 20 and 100 mg/mL. These 100 times-concentrated solutions were each added to a test medium in a ratio of 1/100 to achieve final concentrations of 1.6, 8, 40, 200 and 1,000 μg/mL and sterilized with a filter to be used in the test. As a negative control, water was added to a medium in a ratio of 1/100 and sterilized with a filter to be used in the test. As a positive control, a test medium containing a 100 ng/mL nerve growth factor (NGF) was used.
A growth medium was used to adjust the cells to a concentration of 2.0×10^3 cells/100 μL/well, and the cells were scattered in a collagen-coated 96-well plate to be cultured in a CO2 incubator (5% CO2, 37° C., moistening) for 24 hours. After culture, the medium was replaced by a sample-containing test medium (100 μL), and the cells were cultured in a CO2 incubator for 96 hours. After the end of culture, an image of the cells in each well was taken with a phase difference microscope and used for the measurement of nuetrite outgrowth rate, and nuclei and cytoplasms were fluorescent dyed by using a neurite outgrowth staining kit to measure the number of living cells and the amount of neurite outgrowth. These procedures were carried out five times each.
Based on the image taken above, the total number of cells, the number of cells showing the same or higher neurite outgrowth than the cell length and the number of cells showing neurites having a length 2 times or more than the cell length were measured from the image of the cells. The percentage (%) of cells showing neurite outgrowth was calculated from the measurement values.

`OC[C@H]1OC[C@H](O)[C@@H](O)[C@@H]1O` [1,5-AG, 1,5-anhydro-D-glucitol]: in the experiment with mesenchymal stem cells, the “expression of CSH-1” value is “decreases as well” and the “expression of interleukin 6 signal transducer (IL6ST) gene” value was “reduced most”. In the experiment with mesenchymal stem cells (rank among genes whose expression was reduced), the “expression of pregnancy specific beta-1-glycoprotein 1 (PSG-1) gene” value was “observed after these”. Moreover, in the experiment on PC12 cells (40 μg/mL 1,5-AG), the “cells showing a neurite outgrowth rate of 1 time or more” value worked out at 15.8% and the “cells showing a neurite outgrowth rate of 2 times or more” value is 10.3%. In addition, in the experiment with PC12 cells (200 μg/mL 1,5-AG), the “cells showing a neurite outgrowth rate of 1 time or more” value is listed as 18.7% and the “cells showing a neurite outgrowth rate of 2 times or more” value worked out at 10.4%. Besides, the “cells showing a neurite outgrowth rate of 2 times or more, relative to non-added section” value with PC12 cells (40 and 200 μg/mL 1,5-AG) is “about 2 times”.
